Experimental data from patent publication US20200197439A1, “IMM[…] POLYOMAVIRUSES” (Atara Biotherapeutics, Inc., priority 2016, published 2020).

Tested on: CD8+ T cells
Assay: HLA restriction of mapped CD8+ BKV epitopes (ICS with peptide loaded HLA-matched and mismatched LCLs)
Format: cell-based, human
Conditions: CD8+ epitopes mapped in this study; T cells stimulated with peptide loaded HLA-matched and mismatched LCLs
Description: In order to characterize the T cell responses directed towards these antigens and precisely map the HLA class I and class II-restricted T cell responses, individual overlapping peptides (15 aa long overlapping by 10 aa) were sourced for LTA, STA and VP1 proteins for T cell epitope mapping. A two-dimensional peptide matrix was used to distribute all individual peptides into small overlapping peptide pools. The matrix is set up in the way that each peptide occurs once on the ordinate (FIG. 3). These peptide pools were used in ICS assays. After the ICS analysis, T cell response to the peptide pools was compared with the matrix to identify individual peptides. These individual peptides were further assessed for T cell expansion and ICS analysis to identify potential BK. Once the 15 mer peptide was identified, further mimimalization of the epitope sequence was carried out to identify the optimal T cell epitope sequence. The 15 mer peptide sequences were trimmed from both N- and C-terminus to a minimal of 9 aa long peptides. Once the minimal peptide sequence was identified, further confirmation was carried out using limiting dose titration ICS assay. After mapping minimal epitope sequence, the HLA restriction of the epitope was identified by stimulating T cells using peptide loaded HLA-matched and mismatched LCLs. […]

| Sequence | HLA Restriction |
| --- | --- |
| VKNPYPISFLL (BK polyomavirus) | Cw*07 |

Tested on: CD4+ T cells
Assay: HLA restriction of mapped CD4+ BKV epitopes (ICS with peptide loaded HLA-matched and mismatched LCLs)
Format: cell-based, human
Conditions: CD4+ epitopes mapped in this study; T cells stimulated with peptide loaded HLA-matched and mismatched LCLs
Description: In order to characterize the T cell responses directed towards these antigens and precisely map the HLA class I and class II-restricted T cell responses, individual overlapping peptides (15 aa long overlapping by 10 aa) were sourced for LTA, STA and VP1 proteins for T cell epitope mapping. A two-dimensional peptide matrix was used to distribute all individual peptides into small overlapping peptide pools. The matrix is set up in the way that each peptide occurs once on the ordinate (FIG. 3). These peptide pools were used in ICS assays. After the ICS analysis, T cell response to the peptide pools was compared with the matrix to identify individual peptides. These individual peptides were further assessed for T cell expansion and ICS analysis to identify potential BK. Once the 15 mer peptide was identified, further mimimalization of the epitope sequence was carried out to identify the optimal T cell epitope sequence. The 15 mer peptide sequences were trimmed from both N- and C-terminus to a minimal of 9 aa long peptides. Once the minimal peptide sequence was identified, further confirmation was carried out using limiting dose titration ICS assay. After mapping minimal epitope sequence, the HLA restriction of the epitope was identified by stimulating T cells using peptide loaded HLA-matched and mismatched LCLs.
In order to map the T cell epitope further analysis was carried out using sub pools of STA peptides (12 pools) designed based on the two dimensional matrix shown in FIG. 3. […] Similar epitope mapping process was carried out for other CD4^+ and CD8^+ T cell epitopes.

| Sequence | HLA Restriction |
| --- | --- |
| WDEDLFCHEDMFASD [JCV variant […]] | DQB5*01 |
| CFTQWFGLDLTEETL [JCV variant […]] | DRB1*03/04 |
| KMKRMNTLYKKMEQD [JCV variant […]] | DRB1*13 |
| FNVPKRRYWLFKGPI [JCV variant […]] | DRB1*15 |
| RRYWLFKGPIDSGKT [JCV variant […]] | DRB1*15 |
| RGLARYFKIRLRKRS [JCV variant […]] | DRB1*11 |
| GGDEDKMKRMNTLYK [JCV variant […]] | DRB1*13 |
| RKAYLRKCKEFHPDK [JCV variant […]] | DRB1*13 |
| GTQQWRGLARYFKIR [JCV variant […]] | DRB1*11/8 |
